This experiment in a line: Inhibition of cAMP-specific 3',5'-cyclic phosphodiesterase.

The values that follow come from ChEMBL document CHEMBL1151124, “Photodiode Array Detection and Structures of Griseolic Acid Analogues from Culture Broth” (J Nat Prod, 1988).

Calls of active or inactive are those of the source. The rule behind the calls is not given here.

`Nc1ncnc2c1ncn2[C@@H]1O[C@H](C[C@@H](CC(=O)O)C(=O)O)[C@@H](O)[C@H]1O`: the result was inactive.
The result for `Nc1ncnc2c1ncn2[C@@H]1OC2=C[C@](CC(=O)O)(C(=O)O)O[C@H]2[C@H]1O` reads “Active”.
As to `Nc1ncnc2c1ncn2[C@@H]1OC2=C[C@@](C(=O)O)(C(O)C(=O)O)O[C@H]2[C@H]1O` (some centres undefined), the outcome was Active.
For `Nc1ncnc2c1ncn2[C@@H]1O[C@@H]2C[C@](CC(=O)O)(C(=O)O)O[C@H]2[C@H]1O`, the outcome was Active.
